These results are taken from US20220089733A1, “NOVEL APPROACH FOR TREATMENT OF CANCER USING IMMUNOMODULATION” (BioXcel Therapeutics, Inc., priority 2018, published 2022).

For data set [1] the following is noted: in vivo; cited from earlier work.
The target in data set [2] is T1, CYP2C8 (Homo sapiens, UniProt P10632).
T1 sequence (P10632 1-490): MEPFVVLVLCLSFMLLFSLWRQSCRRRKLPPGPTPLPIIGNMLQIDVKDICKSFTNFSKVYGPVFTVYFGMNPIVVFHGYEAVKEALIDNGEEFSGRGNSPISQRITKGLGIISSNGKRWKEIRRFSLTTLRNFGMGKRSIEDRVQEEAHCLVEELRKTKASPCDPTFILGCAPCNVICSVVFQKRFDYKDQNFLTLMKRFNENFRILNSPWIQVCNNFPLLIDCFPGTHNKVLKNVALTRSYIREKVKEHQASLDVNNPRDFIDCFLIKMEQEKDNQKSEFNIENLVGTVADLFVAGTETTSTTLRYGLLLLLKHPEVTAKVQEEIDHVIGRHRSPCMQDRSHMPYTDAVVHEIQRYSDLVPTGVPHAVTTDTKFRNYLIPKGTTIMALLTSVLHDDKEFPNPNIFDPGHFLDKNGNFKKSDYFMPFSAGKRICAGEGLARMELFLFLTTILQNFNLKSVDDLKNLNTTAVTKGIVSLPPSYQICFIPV

Data set [3] deals with CYP2C19 (Homo sapiens, UniProt P33261).
For data set [4], the target named is CYP3A4 (Homo sapiens, UniProt P08684).
Data set [5] concerns the target CYP2C9 (Homo sapiens, UniProt P11712).
In data set [6] the test system is CYP3A4.
Data set [7] addresses CYP1A2 (Homo sapiens, UniProt P05177). To be noted: human liver CYP isoenzymes; preclinical studies.
Data set [8] has as its system CYP1A2.
Data set [9] deals with CYP2D6 (Homo sapiens, UniProt P10635).
Data set [10] deals with melanoma. To be noted: melanoma patients; cited from earlier work.

Sequence of CYP1A2 (Homo sapiens, UniProt P05177) (P05177 whole entry): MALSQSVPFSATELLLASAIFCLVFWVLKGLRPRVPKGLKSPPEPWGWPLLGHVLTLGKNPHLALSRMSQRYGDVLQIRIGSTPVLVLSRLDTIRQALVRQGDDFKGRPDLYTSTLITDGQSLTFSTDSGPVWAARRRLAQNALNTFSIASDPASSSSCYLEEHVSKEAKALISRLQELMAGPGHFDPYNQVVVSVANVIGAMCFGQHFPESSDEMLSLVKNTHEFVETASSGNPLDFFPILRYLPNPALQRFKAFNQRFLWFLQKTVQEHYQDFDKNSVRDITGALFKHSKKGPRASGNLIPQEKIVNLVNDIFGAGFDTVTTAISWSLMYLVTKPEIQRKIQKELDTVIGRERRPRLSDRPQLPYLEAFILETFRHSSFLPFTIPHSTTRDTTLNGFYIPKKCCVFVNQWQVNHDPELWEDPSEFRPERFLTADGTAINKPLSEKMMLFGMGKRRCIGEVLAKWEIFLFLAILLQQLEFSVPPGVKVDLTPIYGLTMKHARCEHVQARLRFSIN
Sequence of CYP2C19 (P33261 whole entry): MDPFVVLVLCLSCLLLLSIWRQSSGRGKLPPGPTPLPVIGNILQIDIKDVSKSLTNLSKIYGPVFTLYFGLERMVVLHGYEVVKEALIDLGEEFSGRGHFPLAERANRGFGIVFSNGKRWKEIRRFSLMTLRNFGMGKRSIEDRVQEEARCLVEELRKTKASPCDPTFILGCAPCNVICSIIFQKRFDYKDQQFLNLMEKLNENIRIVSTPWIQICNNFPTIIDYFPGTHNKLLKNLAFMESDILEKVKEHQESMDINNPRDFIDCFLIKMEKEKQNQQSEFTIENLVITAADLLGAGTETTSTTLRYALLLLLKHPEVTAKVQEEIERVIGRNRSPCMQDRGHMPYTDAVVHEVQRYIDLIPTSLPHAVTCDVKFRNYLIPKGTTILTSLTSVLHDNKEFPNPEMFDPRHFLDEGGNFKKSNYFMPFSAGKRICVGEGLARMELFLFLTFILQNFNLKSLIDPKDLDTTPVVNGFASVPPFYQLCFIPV
Sequence of CYP3A4 (Homo sapiens, UniProt P08684) (P08684 whole entry): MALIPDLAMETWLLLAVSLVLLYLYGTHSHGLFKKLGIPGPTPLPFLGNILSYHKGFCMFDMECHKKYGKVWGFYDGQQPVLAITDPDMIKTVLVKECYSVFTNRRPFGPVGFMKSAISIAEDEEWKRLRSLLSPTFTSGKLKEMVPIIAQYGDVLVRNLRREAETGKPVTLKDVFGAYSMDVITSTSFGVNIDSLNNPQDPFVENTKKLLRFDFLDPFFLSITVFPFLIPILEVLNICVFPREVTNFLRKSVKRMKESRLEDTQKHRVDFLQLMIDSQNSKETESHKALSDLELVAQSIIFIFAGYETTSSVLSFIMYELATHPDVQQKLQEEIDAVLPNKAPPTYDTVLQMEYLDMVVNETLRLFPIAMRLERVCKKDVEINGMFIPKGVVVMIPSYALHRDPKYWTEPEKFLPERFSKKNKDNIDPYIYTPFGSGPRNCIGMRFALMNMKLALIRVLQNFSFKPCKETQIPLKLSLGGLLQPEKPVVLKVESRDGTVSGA
Sequence of CYP2D6 (P10635 whole entry): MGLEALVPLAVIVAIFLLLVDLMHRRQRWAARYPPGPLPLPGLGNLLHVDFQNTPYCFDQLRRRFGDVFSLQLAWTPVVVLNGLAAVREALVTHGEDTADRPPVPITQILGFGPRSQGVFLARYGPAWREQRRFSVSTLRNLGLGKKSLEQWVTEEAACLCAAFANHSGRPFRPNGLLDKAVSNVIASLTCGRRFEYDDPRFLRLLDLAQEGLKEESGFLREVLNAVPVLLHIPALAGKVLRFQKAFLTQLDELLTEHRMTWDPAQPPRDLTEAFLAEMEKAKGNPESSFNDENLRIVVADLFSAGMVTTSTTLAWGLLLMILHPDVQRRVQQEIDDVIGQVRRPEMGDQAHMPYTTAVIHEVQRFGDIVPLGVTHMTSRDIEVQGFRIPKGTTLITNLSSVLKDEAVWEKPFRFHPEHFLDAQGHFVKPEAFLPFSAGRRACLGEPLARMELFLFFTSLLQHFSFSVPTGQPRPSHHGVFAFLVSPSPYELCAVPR
Sequence of CYP2C9 (P11712 whole entry): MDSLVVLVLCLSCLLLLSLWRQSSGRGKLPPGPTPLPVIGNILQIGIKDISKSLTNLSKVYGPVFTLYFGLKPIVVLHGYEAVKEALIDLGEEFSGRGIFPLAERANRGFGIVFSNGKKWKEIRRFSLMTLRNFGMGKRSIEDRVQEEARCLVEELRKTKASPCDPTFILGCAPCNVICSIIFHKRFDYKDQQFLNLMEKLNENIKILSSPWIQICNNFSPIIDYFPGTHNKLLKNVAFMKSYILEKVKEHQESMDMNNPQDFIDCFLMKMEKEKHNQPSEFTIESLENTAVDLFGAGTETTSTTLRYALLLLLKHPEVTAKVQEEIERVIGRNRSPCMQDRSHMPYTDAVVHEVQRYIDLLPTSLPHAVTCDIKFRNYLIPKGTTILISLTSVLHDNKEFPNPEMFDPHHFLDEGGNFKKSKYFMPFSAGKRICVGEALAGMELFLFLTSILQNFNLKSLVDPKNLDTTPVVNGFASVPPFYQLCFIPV

For the compound Talabostat mesylate, in [1], the “Most common / most frequently observed adverse events” value is “edema/peripheral swelling, hypotension, dizziness, and hypovolemia”. In addition, the “Potential to inhibit CYP2C8” value in data set [2] is reported as “low potential”. Further, the “Potential to inhibit CYP2C19” value in data set [3] is on record as “low potential”. Moreover, in [4], the “Potential to inhibit CYP3A4” value is given as “low potential”. In addition, the “Potential to inhibit CYP2C9” value in data set [5] was “low potential”. In addition, in [6], the “Induction of CYP3A4” value is reported as “did not induce”. In addition, in data set [7], the “Potential to inhibit CYP1A2” value is “low potential”. The “Induction of CYP1A2” value in [8] is “did not induce”. Also, the “Potential to inhibit CYP2D6” value in [9] is “low potential”.

Take `CC(C)[C@H](N)C(=O)N1CCC[C@H]1B(O)O` [Talabostat, [(2R)-1-[(2S)-2-amino-3-methylbutanoyl]pyrrolidin-2-yl]boronic acid]: the “Most common / most frequently observed adverse events” value in data set [1] was “edema/peripheral swelling, hypotension, hypovolemia, and dizziness”.

Take “Ipilimumab: CTLA-4 antagonist antibody, checkpoint inhibitor”: in data set [10], the Response rate was 11%.

As for “Nivolumab: PD-1 antagonist antibody, checkpoint inhibitor”, the Response rate in data set [10] was 32%.
